# Reference: article PMC10447463, “Data-mining unveils structure–property–activity correlation of viral infectivity enhancing self-assembling peptides” (Nature Communications, 2023)
# Like-named read-outs stand apart in the source and are kept apart here.
# Tests used:
# [1] = β-sheet content by ATR-FT-IR; format: physicochemical; conditions: Fig. S7 panel A; β-sheet content by ATR-FT-IR
# Summary of the method: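 In the conversion assay, unconverted peptide passing a 3 kDa membrane at 4 °C was labelled with fluorescamine alongside unfiltered PNF, both in DMSO, and read at 365/470 nm after 20 min at room temperature. β-sheet content relied on ATR FT-IR of lyophilized fibril powder.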
# [2] = Zeta-potential measurement; format: physicochemical
# Summary of the method: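 PBS pH 7.4, 1 mg/mL peptide (DMSO stock), 1 d RT aggregation; diluted in 1 mM KCl pre-read; mobility → zeta (Smoluchowski); n = 3, 2 expts averaged.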
# [3] = Turbidity, derived count rate of scattered light; format: physicochemical; conditions: for Count Rate / kcps: derived count rate of scattered light at 633 nm, 173°, from zeta-potential measurement, 0.1 mg/mL in 1 mM KCl after 1 d at 1 mg/mL in PBS, turbidity / microscopic aggregation, mean of triplicate
# Summary of the method: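 One-day room-temperature aggregation at 1 mg/mL in PBS (pH 7.4) preceded measurement; samples then went into 1 mM KCl. Triplicates per sample, two independent experiments averaged.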
# [4] = Turbidity, derived count rate of scattered light; format: physicochemical; conditions: for Count Rate: derived count rate of scattered light (turbidity); for Log10 Count Rate: turbidity, derived count rate of scattered light, data of Figure 2D
# [5] = system: HIV-1 infection of TZM-bl cells; experiment: HIV-1 infectivity enhancement assay, β-galactosidase luminescence; format: cell-based; conditions: for Rel-EFC / Log10 Infection Rel EFC: 1.3 µM peptide; for Rel-EFC: infection relative to EF-C (QCKIKQIINMWQ = 1); for Log10 Infection Rel EFC: log10 of infection relative to EF-C; for Log Infectivity: Log10 infection relative to EF-C, TZM-bl cells, asymmetric std dev errors; for Log10 Infection Rel EF-C: HIV-1 infection of TZM-bl cells; for Log10 of Rel to EFC (Feb2021): Log10 of infection relative to EF-C, all peptides of FigS16; for Abs. Inf.: absolute infection signal, HIV-1 on TZM-bl cells, β-galactosidase luminescence; for Log10 Inf. rel. to EF-C: log10 of HIV-1 infection of TZM-bl cells relative to EF-C (EF-C = 0)
# [6] = zeta-potential of peptide, source data of Figure 2C
# [7] = zeta-potential of the peptide assemblies, mean, Figure 3A source data
# [8] = Log10 of derived count rate of scattered light (turbidity)
# [9] = logarithm of count rate in kcps
# [10] = turbidity, Log10 of derived count rate of scattered light, Figure 3A source data
# [11] = turbidity, log10 of derived count rate of scattered light
# [12] = Fig. S7 panel A (plotted against β-sheet content)
# [13] = Fig. S7 panel B (plotted against CR), rounded to two decimals
# [14] = Log10 of infection rate relative to EF-C, Figure 3A source data
# [15] = infection rate relative to EF-C, log10, data of Figure 2D
# [16] = infection rate relative to EF-C, log10, source data of Figure 2C
Substance,b -sheet / % [1] [%],Zeta-Pot. [2],"Zeta-Potential / mV [2, 6] [mV]","Zeta-Potential / mV [2, 7] [mV]","Log10 Count Rate [3, 8]",Count Rate / kcps [3] [kcps],"Log10 Count Rate [3, 9]","Log10 Count Rate [3, 10]","Log10 Count Rate [3, 11]",Count Rate [4],Log10 Count Rate [4],Rel-EFC [5],Log10 Infection Rel EFC [5],"Log Infectivity [5, 12]","Log Infectivity [5, 13]","Log10 Infection Rel EF-C [5, 14]","Log10 Infection Rel EF-C [5, 15]","Log10 Infection Rel EF-C [5, 16]",Abs. Inf. [5],Log10 Inf. rel. to EF-C [5],further results
CKFKFQF,47.43,19.73,17.4,19.73,3.725,5303,3.725,3.725,3.725,5303,3.725,"1,23","0,09",0.09083,0.09,0.09,0.09083,0.09083,20066.66667,0.09083,"Zeta pot. / mV ([2]; zeta potential of the peptide assemblies): 19.73 mV; Count Rate ([3]; T0, mean of n = 3): 719.1 kcps; Count Rate ([3]; T0, replicate 2): 718.1 kcps; Count Rate ([3]; T0, replicate 3): 875.1 kcps; Count Rate ([3]; T2m, mean of n = 3): 801.2 kcps; Count Rate ([3]; T2m, replicate 1): 2097 kcps; Count Rate ([3]; T2m, replicate 2): 115.2 kcps; Count Rate ([3]; T2m, replicate 3): 191.5 kcps; Count Rate ([3]; T1d, mean of n = 3): 1387.9 kcps; Count Rate ([3]; T1d, replicate 1): 43.1 kcps; Count Rate ([3]; T1d, replicate 2): 2192.2 kcps; Count Rate ([3]; T1d, replicate 3): 1928.4 kcps; Log10 of Rel to EFC (Feb2021) [5]: 0.09; Abs. Infection at 0.26 µM ([5]; peptide 0.26 µM, mean of n = 3, Figure 4A): 5684; Abs. Infection at 1.3 µM ([5]; peptide 1.3 µM, mean of n = 3, Figure 4A): 20066.66667"
CKWKWQW,34.2,,16.02,14.7,3.876,7511,3.876,3.876,,7511,3.876,"0,25","-0,6",-0.5951,,-0.6,-0.5951,-0.5951,,,Zeta-Pot. ([2]; zeta potential of peptide assemblies): 14.7; Log10 Count Rate ([3]; log10 of derived count rate of scattered light (turbidity)): 3.876; Log10 of Rel to EFC (Feb2021) [5]: -0.6
HRRHFRHKITKKK,45.34,-9.223,-4.964,-9.22,0.9777,10,,0.9777,0.9777,9.5,0.9777,"0,01","-1,87",-1.868,-1.87,-1.87,-1.868,-1.868,150,-1.868,
HGDKCHGDKC,4.749,-11.63,-8.035,-11.63,1.095,12,,1.095,1.095,12.43,1.095,"0,01","-1,99",-1.991,-1.99,-1.99,-1.991,-1.991,263.3,-1.991,
CRFRVPF,11.43,4.413,1.957,4.41,1.869,74,,1.869,1.869,73.97,1.869,"0,02","-1,7",-1.701,-1.7,-1.7,-1.701,-1.701,376.7,-1.701,
